PMC6556873, “Rapid Covalent-Probe Discovery by Electrophile-Fragment Screening” (Journal of the American Chemical Society, 2019)
Where two headings read alike, the source gives them in different places.

Assays:
[1] = in vitro; parameters: species or system HB2, HEK293; settings: human, ccd841 cells
[2] = in vitro; parameters: species or system HB2, CCD841; settings: human, hek293 cells
[3] = target: T1, NUDT7 (Homo sapiens, UniProt P0C024); parameters: Intact protein LC/MS covalent labelling, fragments in pools of five, 200 uM each, 4 °C; settings: 24 h, 4 °C, pool of five; 200 µM; covalent
T1 construct: residues 14-235, E. coli, pNIC28-Bsa4, N-terminal His6 tag removed by TEV, construct 26672 Da
T1 sequence (P0C024 14-235): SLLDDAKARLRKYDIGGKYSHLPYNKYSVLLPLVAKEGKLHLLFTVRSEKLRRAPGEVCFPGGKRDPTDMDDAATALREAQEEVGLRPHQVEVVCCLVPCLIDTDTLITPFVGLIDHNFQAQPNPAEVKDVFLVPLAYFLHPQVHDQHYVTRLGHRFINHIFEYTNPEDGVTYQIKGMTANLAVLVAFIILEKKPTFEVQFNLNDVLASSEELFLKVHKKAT

[4] = target: T2, PCAF (Homo sapiens, UniProt Q92831); parameters: Intact protein LC/MS covalent labelling, fragments in pools of five, 200 uM each, 4 °C; settings: 24 h, 4 °C, pool of five; 200 µM; covalent
T2 construct: gene KAT2B
T2 sequence (Q92831 whole entry, the tested form may be a part): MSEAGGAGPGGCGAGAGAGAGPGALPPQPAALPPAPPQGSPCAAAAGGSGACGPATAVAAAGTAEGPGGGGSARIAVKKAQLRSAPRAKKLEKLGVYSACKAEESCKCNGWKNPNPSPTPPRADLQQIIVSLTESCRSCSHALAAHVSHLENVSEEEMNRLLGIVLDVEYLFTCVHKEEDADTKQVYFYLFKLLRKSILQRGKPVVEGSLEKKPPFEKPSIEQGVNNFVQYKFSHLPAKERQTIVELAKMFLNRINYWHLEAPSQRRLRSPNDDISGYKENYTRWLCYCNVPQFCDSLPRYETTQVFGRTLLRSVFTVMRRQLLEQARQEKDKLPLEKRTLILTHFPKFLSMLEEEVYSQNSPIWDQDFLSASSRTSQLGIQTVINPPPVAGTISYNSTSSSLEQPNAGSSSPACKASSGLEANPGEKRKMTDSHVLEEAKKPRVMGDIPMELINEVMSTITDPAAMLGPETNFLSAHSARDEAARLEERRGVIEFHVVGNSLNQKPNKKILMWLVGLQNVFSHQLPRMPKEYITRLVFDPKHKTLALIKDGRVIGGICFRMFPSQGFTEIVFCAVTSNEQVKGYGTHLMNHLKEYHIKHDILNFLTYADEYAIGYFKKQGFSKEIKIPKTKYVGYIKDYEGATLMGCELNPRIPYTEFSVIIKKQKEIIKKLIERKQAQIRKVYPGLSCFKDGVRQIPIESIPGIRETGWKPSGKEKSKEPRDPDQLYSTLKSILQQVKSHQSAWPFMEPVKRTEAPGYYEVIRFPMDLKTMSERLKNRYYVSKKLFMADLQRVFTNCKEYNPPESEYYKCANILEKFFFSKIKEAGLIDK

[5] = target: T3, OTUB2 (OTUB2A) (Homo sapiens, UniProt Q96DC9); parameters: Intact protein LC/MS covalent labelling, fragments in pools of five, 200 uM each, 4 °C; settings: 24 h, 4 °C, pool of five; 200 µM; covalent
T3 construct: full length residues 1-234, E. coli BL21(DE3)-R3, His tag removed by TEV, construct 27312 Da
T3 sequence (Q96DC9 1-234): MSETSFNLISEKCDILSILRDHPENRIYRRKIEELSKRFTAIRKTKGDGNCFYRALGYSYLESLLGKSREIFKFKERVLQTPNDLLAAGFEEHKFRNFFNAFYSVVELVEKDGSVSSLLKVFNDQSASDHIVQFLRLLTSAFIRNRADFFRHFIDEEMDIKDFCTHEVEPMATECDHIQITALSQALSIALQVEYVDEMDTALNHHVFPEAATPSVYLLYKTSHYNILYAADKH

[6] = target: T4, BSA (Bos taurus, UniProt P02769); parameters: Intact protein LC/MS covalent labelling, fragments in pools of five, 200 uM each, 4 °C; settings: 24 h, 4 °C, pool of five; 200 µM; covalent
T4 construct: gene ALB
T4 sequence (P02769 whole entry, the tested form may be a part): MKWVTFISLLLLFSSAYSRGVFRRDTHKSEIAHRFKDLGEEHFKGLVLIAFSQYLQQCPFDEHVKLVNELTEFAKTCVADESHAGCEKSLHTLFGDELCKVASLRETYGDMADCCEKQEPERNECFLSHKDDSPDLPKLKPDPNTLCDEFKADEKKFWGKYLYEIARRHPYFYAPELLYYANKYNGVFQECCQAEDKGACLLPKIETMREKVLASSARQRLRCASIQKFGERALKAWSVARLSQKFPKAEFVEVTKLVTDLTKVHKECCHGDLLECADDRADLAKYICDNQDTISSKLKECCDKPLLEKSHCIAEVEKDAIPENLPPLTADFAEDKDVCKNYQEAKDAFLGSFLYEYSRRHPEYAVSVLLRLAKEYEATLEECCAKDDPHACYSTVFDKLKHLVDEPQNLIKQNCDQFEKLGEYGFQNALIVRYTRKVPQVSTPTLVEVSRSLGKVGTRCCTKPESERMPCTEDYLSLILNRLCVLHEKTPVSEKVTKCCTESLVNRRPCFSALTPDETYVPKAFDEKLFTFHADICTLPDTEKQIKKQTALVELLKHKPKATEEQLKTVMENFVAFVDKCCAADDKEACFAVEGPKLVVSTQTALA

[7] = in vitro; parameters: species or system CCD841, HEK293; settings: human, hb2 cells, read-out: HB-2 Cells Viability (%)

Row | SMILES | viability at 48 h, 10 µM [1] [%] | viability at 48 h, 10 µM [2] [%] | NUDT7 [3] | PCAF [4] | OTUB2 [5] | BSA [6] | viability at 48 h, 10 µM [7] [%]
1 | C=CC(=O)N1CCc2c(ncn(CC)c2=O)C1 [PCM-0103074] | 115 | 100 | 0 | 0 | 0 | 0 | 101
2 | Cc1ccc(S(=O)(=O)N2CCN(C(=O)CCl)CC2)cc1 [PCM-0102759] | 49.9 | 8.6 | 0.12 | 0 | 0 | 0 | 7.5
3 | Cc1ccc(N(C(=O)CCl)C2C=CS(=O)(=O)C2)cc1C (stereo not drawn) [PCM-0103082] | 10.5 | 4.1 | 0.15 | 0 | 0 | 0 | 19.6
4 | O=C(CCl)NCc1ccc2c(c1)OCO2 [PCM-0102578] | 99.9 | 85.6 | 0 | 0 | 0.16 | 0 | 97.5
5 | O=C(CCl)Nc1nc2ccccc2s1 [PCM-0102698] | 77.5 | 65.6 | 0.83 | 0 | 0.07 | 0 | 64.2
6 | C=CC(=O)Nc1ccc(C)cn1 [PCM-0102627] | 84.1 | 78.8 | 0 | 0 | 0 | 0 | 96.7
7 | O=C(CCl)Nc1cc(C(F)(F)F)ccc1N1CCCC1 [PCM-0102321] | 116 | 110 | 0 | 0 | 0 | 0 | 104
8 | O=C(CCl)NCc1cc(F)cc(F)c1 [PCM-0102790] | 71.3 | 74.1 | 0 | 0 | 0 | 0 | 98.6
9 | CN(Cc1ccc(Cl)c(Cl)c1)C(=O)CCl [PCM-0102349] | 3.9 | 1.4 | 0.59 | 0 | 0 | 0 | 1.7
10 | O=C(CCl)Nc1cccc2ncccc12 [PCM-0102097] | 51.3 | 27.9 | 0 | 0 | 0.42 | 0 | 49
11 | CC1CCc2c(sc(NC(=O)CCl)c2C(N)=O)C1 (stereo not drawn) [PCM-0103029] | 63.2 | 18.6 | 0.09 | 0 | 0 | 0 | 21
12 | C=CC(=O)N1CCC(n2ncc3ccccc32)C1 (stereo not drawn) [PCM-0102966] | 95.1 | 86.3 | 0 | 0 | 0.42 | 0 | 105
13 | CC(C)(O)CNC(=O)CCl [PCM-0102554] | 99.5 | 93.2 | 0 | 0 | 0 | 0 | 103
14 | C=CC(=O)N1CCc2c([nH]c3ccccc23)C1 [PCM-0102650] | 107 | 85.6 | 0.14 | 0 | 0 | 0 | 100
15 | C=CC(=O)N1CCC(N2CCS(=O)(=O)CC2)CC1 [PCM-0102444] | 109 | 93.6 | 0 | 0 | 0 | 0 | 102
16 | NC(=O)C1CCCCN1C(=O)CCl (stereo not drawn) [PCM-0102203] | 75.3 | 50.7 | 0 | 0 | 0 | 0 | 79.7
17 | CN(Cc1cc(C#N)ccc1F)C(=O)CCl [PCM-0102897] | 69.2 | 9.6 | 0.07 | 0 | 0 | 0 | 23.8
18 | O=C(CCl)Nc1cc(C(F)(F)F)ccc1-n1cncn1 [PCM-0102218] | 63.7 | 17.7 | 0.28 | 0 | 0 | 0 | 42.2
19 | C=CC(=O)Nc1cccc(Br)c1 [PCM-0102667] | 89.4 | 86.4 | 0.08 | 0 | 0.18 | 0 | 97.1
20 | Cl.O=C(CCl)N1CCN(Cc2ccccc2F)CC1 [PCM-0102387] | 67.2 | 35.1 | 0 | 0 | 0.32 | 0 | 24
21 | CN(Cc1cnn(C)c1)C(=O)CCl.Cl [PCM-0102899] | 91.9 | 70.7 | 0.08 | 0 | 0.26 | 0 | 101
22 | Cc1ccc(NC(=O)CCl)cc1S(N)(=O)=O [PCM-0102177] | 28.2 | 1.4 | 0.1 | 0 | 0.27 | 0 | 8.9
23 | COc1ccc(N2CCN(C(=O)CCl)CC2)cc1 [PCM-0102254] | 84.2 | 42.2 | 0 | 0 | 0 | 0 | 33.8
24 | N#Cc1cccc(NC(=O)CCl)c1 [PCM-0103033] | 19.1 | 7.4 | 0 | 0 | 0.23 | 0 | 6.3
25 | CN(C(=O)CCl)C1CCCc2ccccc21 (stereo not drawn) [PCM-0102703] | 25.8 | 5.8 | 0.3 | 0 | 0 | 0 | 6.6
26 | Cc1ccc(NC(=O)CCl)cc1 [PCM-0102320] | 63.2 | 8.7 | 0 | 0 | 0.24 | 0 | 29.1
27 | CC(C)(C)OC(=O)N1CCN(C(=O)CCl)CC1 [PCM-0102786] | 84 | 68.2 | 0 | 0 | 0 | 0 | 85.9
